Assay results taken from article PMC10945480 (Journal of Medicinal Chemistry, 2024).

How the values were obtained:
[1] = Parallel artificial membrane permeability assay (PAMPA); conditions: 50 μM, 25 ℃, 3 h, verapamil = 100%, ranitidine = 0%
Outline: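 Donor wells held 50 μM compound (DMSO <1% v/v, diluted from 10 mM stocks) in buffer; filter membrane coated with 2% w/v DOPC in n-dodecane. Sandwich incubated 3 h at 25 ℃, then donor and acceptor drug amounts quantified by UV spectra (220–400 nm) against reference standards.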

A549 cancer cells = assay: Platelet-enhanced tumor cell proliferation; assay type: cell-based, human; conditions: A549 plus platelets, 48 h, 0.5 to 2 μM
Protocol: In order to examine platelet-enhanced cancer cell growth, A549 cancer cells were coincubated with platelets for 48 h.
Figure 5 Inhibitory effects of JUG derivatives 18 and 22 on tumor cell-induced platelet secretion and platelet-enhanced tumor cell proliferation. (a) Washed human platelets were coincubated with A549 cancer cells under the same conditions as described in Figure 4. Secretion of PDGF and ATP were determined with the enzyme-linked immunosorbent assay (ELISA) and bioluminescent assay, respectively. (b) A549 cancer cells were coincubated with washed human platelets at 37 °C and 5% CO2 in a cell culture incubator for 48 h. After washing with PBS, the numbers of viable cancer cells were determined by trypan blue exclusion. Data are mean ± SEM of at least three independent experiments. In (a), *P < 0.05; **P < 0.01; ***P < 0.001 as compared with vehicle control (DMSO). In (b), *P < 0.05; **P < 0.01; ***P < 0.001 as compared with A549 cells plus platelets.
A549 cells (1 × 10^4 cells/well) were seeded in a 96-well plate and coincubated with wash human platelets (1 × 10^7 cells/well) containing with 0.375% plasma for 48 h at 37 °C and 5% CO2 in a cell culture incubator. After washing with phosphate buffered saline, the numbers of viable cancer cells were determined by trypan blue exclusion.

[2] = test system: human vascular endothelial EA.hy926 cells; assay: Cell viability, resazurin assay, EA.hy926; conditions: EA.hy 926, 24 h, read-out: EAhy926 IC50
Protocol: Cells were maintained in a humidified incubator at 37 °C in 5% CO2, and cell viability was determined with the resazurin assay (Cayman Chemical, USA) after the incubation with compounds for indicated concentrations and times or DMSO as control.[72]

- Permeability (%) [1]: 10.64%
Structure (SMILES): CC(=O)OC1O[C@H](CSC2=CC(=O)c3cccc(O)c3C2=O)[C@@H](OC(C)=O)C(OC(C)=O)[C@H]1OC(C)=O (stereo in doubt) [Compound 18, 2-(1,2,3,4-Tetra-O-acetyl-6-deoxy-6-thio-α-D-glucopyranose)-8-hydroxynaphthalene-1,4-dione]
- platelet-enhanced cancer cell growth (A549 cancer cells): blunted platelet-enhanced cancer cell growth
- IC50 [2]: 7.27 ± 0.08 µM
